In patent publication US11999806B2, “Broad-spectrum polypeptide against enterovirus and application thereof” (WUHAN INSTITUTE OF VIROLOGY, CHINESE ACADEMY OF SCIENCES, priority 2018, dated 2024):
Values joined by “and” are separate entries in the source; they are usually repeats but may differ in a detail not shown here. Equal entries are not always repeated. Where two headings read alike, the source gives them in different places. Non-standard residues stand in square brackets, D forms with d. Residues, ends and D or L forms follow the SMILES beside them. No end group written: not given here.

Assays:
RD cells = test: Cytotoxicity by CCK-8 in RD cells; type: cell-based; details: RD cells; for cytotoxicity, result in words: CCK-8, 24 h; for Cell viability (%): 24 h
Procedure: (§1) The experiment was performed as follows. • (1) RD cells were plated in a 96-well plate at 100 μl per well. • (2) After the cells reached 70%-80% confluence, the MEM medium containing 10% serum was replaced with a MEM medium containing 2% serum. Then, polypeptide P2 was added to generate gradient concentrations of 0.01 μM, 0.1 μM, 1 μM, 10 μM, and 100 μM (final concentration), respectively. • (3) The test was performed 24 hours after the addition of the polypeptide, and 10 μl of viable cell detection reagent CCK-8 was added to each well and mixed well. • (4) The plate was incubated at 37° C. for 2 h. • (5) The absorbance value at OD450 was measured with a microplate reader.
as §1, with “P1” for “P2”, “concentrations),” for “concentration),”
(§2) RD cells were used to test the antiviral effect of polypeptide P1. When RD cells reached 80% confluence, polypeptide P1 was added at concentrations of 0 μM (control group), 0.01 μM, 0.1 μM, 1 μM, 10 μM, and 100 μM, respectively. Three parallel wells were used for each concentration. The test was carried out 24 hours later, and the cell viability was detected using the CCK-8 kit.
as §1, with “3A-TAT-EP” for “P2”, “concentrations),” for “concentration),”
as §2, with “3A-TAT-EP.” for “P1.”, “3A-TAT-EP” for “P1”
as §1, with “Then, 3A-EP-DRI or 3A-EP-PEG4-PA” for “Then, polypeptide P2”, “and 50” for “and 100”, “(final concentrations),” for “(final concentration),”
as §2, with “polypeptides 3A-EP-DRI and 3A-EP-PEG4-PA.” for “polypeptide P1.”, “3A-EP-DRI or 3A-EP-PEG4-PA” for “P1”, “50” for “100”, “kit. […]” for “kit.”

[1] = Cytotoxicity by CCK-8 in RD cells; type: cell-based; details: human; for viability at 24 h, 0.01 µM: 0.01 μM polypeptide; for viability at 24 h, 0.1 µM: 0.1 μM polypeptide; for viability at 24 h, 1 µM: 1 μM polypeptide; for viability at 24 h, 10 µM: 10 μM polypeptide; for viability at 24 h, 20 µM: 20 μM polypeptide; for viability at 24 h, 20 µM / viability at 24 h, 30 µM / viability at 24 h, 40 µM / viability at 24 h, 50 µM: 24 h (Table 6); for viability at 24 h, 30 µM: 30 μM polypeptide; for viability at 24 h, 40 µM: 40 μM polypeptide; for viability at 24 h, 50 µM: 50 μM polypeptide
Procedure: as §1
as §1, with “P1” for “P2”, “concentrations),” for “concentration),”
as §2
as §1, with “3A-TAT-EP” for “P2”, “concentrations),” for “concentration),”
as §2, with “3A-TAT-EP.” for “P1.”, “3A-TAT-EP” for “P1”
as §1, with “Then, 3A-EP-DRI or 3A-EP-PEG4-PA” for “Then, polypeptide P2”, “and 50” for “and 100”, “(final concentrations),” for “(final concentration),”
as §2, with “polypeptides 3A-EP-DRI and 3A-EP-PEG4-PA.” for “polypeptide P1.”, “3A-EP-DRI or 3A-EP-PEG4-PA” for “P1”, “50” for “100”, “kit. […]” for “kit.”

[2] = RD cells, 24 h, untreated = 100%, read-out: Cell viability (%)
[3] = RD cells, read-out: Cell viability (%)
[4] = Table 1 summary, cell line not given, read-out: CC50

For CC[C@@H](C)[C@@H](NC(=O)[C@H]1CCCN1C(C)=O)C(=O)N[C@@H](C(=O)N[C@H](Cc1c[nH]c2ccccc12)C(=O)NCC(=O)N[C@H](CCC(N)=O)C(=O)N[C@H](CCC(=O)O)C(=O)N[C@H](CCCNC(=N)N)C(=O)N[C@H](CS)C(=O)N[C@H](Cc1ccc(O)cc1)C(=O)N[C@H](CCC(N)=O)C(=O)N[C@H](CCCNC(=N)N)C(=O)N[C@@H](C(=O)N[C@H](CCC(=O)O)C(=O)N[C@H](CCC(=O)O)C(=O)N1CCC[C@@H]1C(=O)N1CCC[C@@H]1C(=O)N[C@H](CCCNC(=N)N)C(=O)N[C@H](CCCNC(=N)N)C(=O)N[C@H](CCCNC(=N)N)C(=O)N[C@H](CCC(N)=O)C(=O)N[C@H](CCCNC(=N)N)C(=O)N[C@H](CCCNC(=N)N)C(=O)N[C@H](CCCCN)C(=O)N[C@H](CCCCN)C(=O)N[C@H](CCCNC(=N)N)C(=O)NCC(=O)N[C@H](Cc1ccc(O)cc1)C(N)=O)C(C)C)[C@H](C)CC [3A-EP-DRI], the “cytotoxicity, result in words” value (RD cells) was “not toxic to cells within 50 μM”, the viability at 24 h, 0.01 µM [1, 2] was 106% and the viability at 24 h, 0.1 µM [1, 2] was 95.9%. It also gave a viability at 24 h, 1 µM [1, 2] of 91.3%, a viability at 24 h, 10 µM [1, 2] of 95.7% and a viability at 24 h, 20 µM [1, 3] of 101%. The viability at 24 h, 30 µM [1, 3] was 99%, the viability at 24 h, 40 µM [1, 3] was 89% and the viability at 24 h, 50 µM [1, 3] was 78.5%. For the same compound, the CC50 at 24 h [1, 4] was > 100 µM.
For CCCCCCCCCCCCCCCC(=O)NCCCC[C@H](NC(=O)CCOCCOCCOCCOCCNC(=O)[C@H](CCCCN)NC(=O)[C@H](C)NC(=O)[C@@H]1CCCN1C(=O)[C@@H](NC(=O)[C@@H](NC(=O)[C@H](Cc1c[nH]c2ccccc12)NC(=O)CNC(=O)[C@H](CCC(N)=O)NC(=O)[C@H](CCC(=O)O)NC(=O)[C@H](CCCNC(=N)N)NC(=O)[C@H](CS)NC(=O)[C@H](Cc1ccc(O)cc1)NC(=O)[C@H](CCC(N)=O)NC(=O)[C@H](CCCNC(=N)N)NC(=O)[C@@H](NC(=O)[C@H](CCC(=O)O)NC(=O)[C@@H](N)CCC(=O)O)C(C)C)[C@@H](C)CC)[C@@H](C)CC)C(=O)O [3A-EP-PEG4-PA], the “cytotoxicity, result in words” value (RD cells) was “not toxic to cells within 50 μM”, the viability at 24 h, 0.01 µM [1, 2] was 107% and the viability at 24 h, 0.1 µM [1, 2] was 94.9%. The viability at 24 h, 1 µM [1, 2] was 89.9%, the viability at 24 h, 10 µM [1, 2] was 95.3% and the viability at 24 h, 20 µM [1, 3] was 98.4%. It also gave a viability at 24 h, 30 µM [1, 3] of 99.5%, a viability at 24 h, 40 µM [1, 3] of 99.3% and a viability at 24 h, 50 µM [1, 3] of 94.8%. The CC50 at 24 h [1, 4] was > 100 µM.
In the case of CC(=O)N[C@H](CCCNC(=N)N)C(=O)N[C@H](CS)C(=O)N[C@H](Cc1ccc(O)cc1)C(=O)N[C@H](CCC(N)=O)C(=O)N[C@H](CCCNC(=N)N)C(=O)N[C@@H](C(=O)N[C@H](CCC(=O)O)C(=O)N[C@H](CCC(=O)O)C(=O)N1CCC[C@@H]1C(=O)N1CCC[C@@H]1C(=O)N[C@H](CCCNC(=N)N)C(=O)N[C@H](CCCNC(=N)N)C(=O)N[C@H](CCCNC(=N)N)C(=O)N[C@H](CCC(N)=O)C(=O)N[C@H](CCCNC(=N)N)C(=O)N[C@H](CCCNC(=N)N)C(=O)N[C@H](CCCCN)C(=O)N[C@H](CCCCN)C(=O)N[C@H](CCCNC(=N)N)C(=O)NCC(=O)N[C@H](Cc1ccc(O)cc1)C(N)=O)C(C)C [ER-DRI] (Ac-[dR][dC][dY][dQ][dR][dV][dE][dE][dP][dP][dR][dR][dR][dQ][dR][dR][dK][dK][dR]G[dY]-NH2), the “Cell viability (%)” value (RD cells; 0.46875 μM) is reported as 100.2% and 99.28%, the “Cell viability (%)” value (RD cells; 2.34375 μM) is reported as 98.83% and 96.33% and the “Cell viability (%)” value (RD cells; 4.6875 μM) is reported as 98.51% and 97.63%. The “Cell viability (%)” value (RD cells; 9.375 μM) was 96.79% and 94.15%, the “Cell viability (%)” value (RD cells; 18.75 μM) was 91.14% and 89.01% and the “Cell viability (%)” value (RD cells; 37.5 μM) was 86.77% and 86.97%. The “Cell viability (%)” value (RD cells; 75 μM) was 70.42% and 71.95%, the “Cell viability (%)” value (RD cells; 150 μM) was 34.62% and 34.08% and the “Cell viability (%)” value (RD cells; 300 μM) was 17.58% and 18.69%. For the same compound, the “cytotoxicity, result in words” value (RD cells) was “very low toxicity”, the viability at 24 h, 0.46875 µM ([1]; RD cells, 0.46875 μM, 24 h, read-out: Cell viability (%)) was 103% and the viability at 24 h, 2.34375 µM ([1]; RD cells, 2.34375 μM, 24 h, read-out: Cell viability (%)) was 104%. It also gave a viability at 24 h, 4.6875 µM ([1]; RD cells, 4.6875 μM, 24 h, read-out: Cell viability (%)) of 101%, a viability at 24 h, 9.375 µM ([1]; RD cells, 9.375 μM, 24 h, read-out: Cell viability (%)) of 96% and a viability at 24 h, 18.75 µM ([1]; RD cells, 18.75 μM, 24 h, read-out: Cell viability (%)) of 95.8%. It also gave a viability at 24 h, 37.5 µM ([1]; RD cells, 37.5 μM, 24 h, read-out: Cell viability (%)) of 86%, a viability at 24 h, 75 µM ([1]; RD cells, 75 μM, 24 h, read-out: Cell viability (%)) of 68.9% and a viability at 24 h, 150 µM ([1]; RD cells, 150 μM, 24 h, read-out: Cell viability (%)) of 34%. It also gave a viability at 24 h, 300 µM ([1]; RD cells, 300 μM, 24 h, read-out: Cell viability (%)) of 18.2% and a CC50 at 24 h ([1]; RD cells, CCK-8, 24 h, Example 15, read-out: 50% cytotoxic concentration (CC50)) of 117 µM.
With RRRRRRRREEVRQYCRDQ [P2] the “Cell viability (%)” value (RD cells; 0.01 μM polypeptide, untreated = 100%) was 104.6% and 102.7%, the “Cell viability (%)” value (RD cells; 0.1 μM polypeptide, untreated = 100%) was 104% and 100.6% and the “Cell viability (%)” value (RD cells; 1 μM polypeptide, untreated = 100%) was 105.4% and 98.81%. The “Cell viability (%)” value (RD cells; 10 μM polypeptide, untreated = 100%) was 101.1% and 99.03%, the “Cell viability (%)” value (RD cells; 100 μM polypeptide, untreated = 100%) was 106.8% and 94.07% and the “cytotoxicity, result in words” value (RD cells) was “not toxic to cells within 100 μM”. For the same compound, the viability at 24 h, 0.01 µM [1, 2] was 98%, the viability at 24 h, 0.1 µM [1, 2] was 94.4% and the viability at 24 h, 1 µM [1, 2] was 105%. The viability at 24 h, 10 µM [1, 2] was 96.6%, the viability at 24 h, 100 µM ([1]; RD cells, 100 μM polypeptide, 24 h, untreated = 100%, read-out: Cell viability (%)) was 90.1% and the CC50 at 24 h [1, 4] was > 100 µM.
